pIC50: −log10 of the molar value. “Also recorded” adds a separate entry of the source. Like-named read-outs stand apart in the source and are kept apart here.
Tests used:
[1] = Brain and blood levels three weeks after MPTP administration (LC/MS/MS); assay type: in vivo, mouse (C57BL/6); settings: 21 days i.p. dosing after MPTP
Experimental: Data are expressed as mean±SEM. Three animals were tested per group.
C57BL/6 mice treated with MPTP and then dosed IP with compound for 21 days were utilized for pharmacokinetic (PK) analysis of total P7C3, P7C3A20 and Dimebon levels in plasma and brain. In a separate set of experiments designed to test the ability of new P7C3 analogs to cross the blood brain barrier, C57BL/6 mice were dosed IP a single time with compounds at 10 mg/kg. P7C3, P7C3A20 and Dimebon were formulated for administration as described above. Analogs were formulated in 5% Dextrose, pH 7.4, containing 5% DMSO and 10% Cremophor EL with the exception of P7C3-S8 which required 10% DMSO and 20% Cremophor EL dissolved in 5% Dextrose for delivery. Six hours after the final compound dose, animals were given an inhalation overdose of CO2 and whole blood and brain collected. Plasma was prepared from blood and was stored along with the brain tissue at −80° C. until analysis. […] The supernatant was then analyzed by LC/MS/MS. […] The limit of quantitation (LOQ) was defined as the lowest concentration at which back calculation yielded a concentration within 20% of the theoretical value and above the LOD signal. […] Compound levels were monitored by LC/MS/MS using an AB/Sciex (Framingham, Mass.) 3200 Qtrap mass spectrometer coupled to a Shimadzu (Columbia, Md.) Prominence LC.

H1 histamine receptor = H1 histamine receptor (Homo sapiens, UniProt P35367); test: Binding to the H1 histamine receptor
Chain of H1 histamine receptor (P35367 whole entry): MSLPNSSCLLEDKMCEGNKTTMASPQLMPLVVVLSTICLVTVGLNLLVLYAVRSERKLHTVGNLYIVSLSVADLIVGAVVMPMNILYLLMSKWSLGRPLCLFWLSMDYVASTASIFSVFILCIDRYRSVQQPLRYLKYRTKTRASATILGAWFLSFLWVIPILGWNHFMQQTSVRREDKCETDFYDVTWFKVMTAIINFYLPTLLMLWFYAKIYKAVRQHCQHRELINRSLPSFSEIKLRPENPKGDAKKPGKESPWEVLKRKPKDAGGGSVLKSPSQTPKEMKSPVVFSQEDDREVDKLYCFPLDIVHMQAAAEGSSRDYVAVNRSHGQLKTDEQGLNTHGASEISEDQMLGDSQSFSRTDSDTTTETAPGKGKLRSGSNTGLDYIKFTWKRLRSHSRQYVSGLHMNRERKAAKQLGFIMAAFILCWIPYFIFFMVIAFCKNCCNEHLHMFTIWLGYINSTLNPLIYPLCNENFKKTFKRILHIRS
Experimental: Example 45 Compound and Dimebon were tested for binding to the H1 histamine receptor.

[2] = test system: neural precursor cells in the subgranular zone of the dentate gyrus; test: In vivo pro-neurogenic efficacy/neuroprotection assay: intracerebroventricular infusion, BrdU incorporation in the dentate gyrus; parameters: species or system mouse (C57/Bl6); settings: for pro-neurogenic activity in the in vivo hippocampal neurogenesis assay: direct administration into the brain via Alzet minipumps for one week, 10 μM unless stated
Experimental: Compounds were evaluated for pro-neurogenic efficacy/neuroprotection in our standard in vivo assay at 10 μM concentration in four 12 week old adult male C57/Bl6 mice.
In an effort to identify compounds that might stimulate the birth of new neurons, or protect newborn neurons from cell death, a library of 1,000 compounds was screened using an in vivo assay. In the initial screen, compounds were randomly pooled into groups often and administered intracerebroventricularly at a constant rate over seven days into the left lateral ventricle of living mice via Alzet osmotic mini-pumps. Compounds were administered at a concentration of 10 μM for each molecule, making a total solute concentration of 100 μM. After seven days of infusion at a constant rate of 0.5 μL/hour, a total of 84 μL of volume will have left the pump (0.00084 μMoles) and entered the cerebrospinal fluid. The average volume of a brain from a 12 week old male, C57/B6 mouse in our study is 500 mm^3. […] Under these conditions, at the end of one week of infusion each compound would be present at 1.7 μMolar concentration. Since the actual amount of chemical compound in the brain is likely to be only a fraction of this predicted level, it is reasonable to estimate that compounds were administered at mid to low-nanomolar concentrations.
During compound infusion, animals were intraperitoneally (IP) injected daily with the thymidine analog, bromodeoxyuridine (BrdU), as a means of scoring the birth and survival of proliferating neural precursor cells in the hippocampus. Because both social interaction and voluntary exercise are known to stimulate hippocampal neurogenesis, mice were housed individually without access to running wheels throughout the screening period. Following the week-long period of compound administration, animals were perfused and sacrificed. Dissected brain tissue was fixed, embedded, sectioned, stained with antibodies to BrdU, and evaluated by light microcopy as a means of quantifying neurogenesis and survival of newborn neural precursor cells localized to the subgranular layer of the dentate gyrus on the brain hemisphere contralateral to the side of mini-pump cannulation. Every fifth section throughout the entire rostral-caudal extent of the hippocampus was analyzed, and the total number of BrdU+ cells was normalized against the measured volume of the dentate gyrus. Because both increased proliferation and survival of newborn neurons are important screening parameters, the screen was conducted over seven days in order to cast a wide net to detect molecules that might augment either process. […] Intracranial infusions of either fibroblast growth factor 2 (FGF-2) or artificial cerebral spinal fluid (aCSF) vehicle via the same, week-long protocol were employed as positive and negative controls. There was no difference in the number of BrdU-labeled cells in the dentate gyrus between mice subjected to surgical pump implantation and infusion with vehicle, and mice having had no surgery (FIG. 2). This confirmed the validity of the in vivo approach to assess the ability of intracerebroventricularly infused compounds to enhance hippocampal neurogenesis in the contralateral hemisphere.
In order to further study Example 45 Compound, an in vivo structure activity relationship (SAR) study was conducted using 37 chemical derivatives of the compound for pro-neurogenic activity via direct administration into the brain of adult mice via Alzet minipumps. Compounds were administered for one week at 10 uM into 4 mice per compound, along with daily IP injections of BrdU. Following compound administration, animals were perfused, sacrificed and subjected to sectioning, staining and light microscopy in order to monitor hippocampal neurogenesis localized to the subgranular layer of the dentate gyrus. Roughly 10% of the variant compounds retained pro-neurogenic activity indistinguishable from the parent compound. […]

| Structure (SMILES) | brain accumulation relative to other compound [1] | pIC50 (H1 histamine receptor) | pro-neurogenic activity in the in vivo hippocampal neurogenesis assay [2] | ceiling of efficacy relative to Dimebon in the in vivo test of hippocampal neurogenesis ([2]; higher than Dimebon) | pIC50 (H1 histamine receptor; both enantiomers) |
| --- | --- | --- | --- | --- | --- |
| COc1cccc(NCC(F)Cn2c3ccc(Br)cc3c3cc(Br)ccc32)c1 (stereo not shown) [Example P7C3A20, N-(3-(3,6-dibromo-9H-carbazol-9-yl)-2-fluoropropyl)-3-methoxyaniline] | less than one-tenth the concentration of P7C3; also recorded: about one-tenth |  |  |  |  |
| Cc1ccc2c(c1)c1c(n2CCc2ccc(C)nc2)CCN(C)C1 [Dimebon, 2,3,4,5-Tetrahydro-2,8-dimethyl-5-(2-(6-methyl-3-pyridyl)ethyl)-1H-pyrido(4,3-b)indole, reference compound] | comparable levels of brain accumulation to P7C3A20; also recorded: equivalent to P7C3 | > 7.00 |  |  |  |
| OC(CNc1ccccc1)Cn1c2ccc(Br)cc2c2cc(Br)ccc21 (stereo not shown) [Example 45 Compound] |  |  | pro-neurogenic or neuroprotective activity at both concentrations | roughly 40% | < 5.00 |
| OC(CNc1cccc2ccccc12)Cn1c2ccc(Cl)cc2c2cc(Cl)ccc21 (stereo not shown) [Example P7C3-S184] |  |  | inactive in both in vivo assays |  |  |
